The subject of assay [1] is OVCAR 3. The assay can be described thus: OVCAR 3 human cancer cell growth inhibition. The format is cell-based. The following applies: OVCAR 3 cell line. The source says:
(§1) Current research in the control of cancer in the United States is coordinated by the National Cancer Institute (NCI). To determine whether a substance has anti-cancer properties, the NCI has established a systematic protocol. This protocol, which involves the testing of a substance against a standard cell line panel containing 60 human tumor cell lines, has been verified and has been accepted in scientific circles. The protocol, and the established statistical means for analyzing the results obtained by the standardized testing are fully described in the literature. See: Boyd, Dr. Michael R., Principles & Practice of Oncology, PPO Updates, Volume 3, Number 10, Oct. […]
(§2) Each drug is tested at five (5) doses: 100--10--1--0.1--0.01 μg/ml. Percent Growths are calculated for each dose. […]
(§3) At the start of an experiment, cells from the in vitro cell cultures are inoculated into the appropriate tubes or microtiter plates. One set of control tubes/plates is immediately counted to determine the number of cells at the start of the experiment. This is the "baseline count", or "Tzero reading". At the end of the experiment (48 hours later), a second set of control tubes/plates is analyzed to determine the "Control Growth" value. The growth (or death) of cells relative to the initial quantity of cells is used to define the "Percent of Growth".

Assay [2] deals with U.S. National Cancer Institute panel of 60 human cancer cell lines. The assay can be described thus: NCI panel of 60 human cancer cell lines, growth inhibition. The format is cell-based. The following applies: NCI 60 cell line panel, quadruplicate tests, average over panel, 48 hours; read-out: overall panel-averaged GI50 concentration.
Excerpt: as §1, §2, §3

Assay [3] deals with murine P388 lymphocytic leukemia (PS system) cell line. The following applies: earlier reported work (J. Org. Chem. 1992); cited from earlier work.

Values after ≈ are worked out from the molar mass of the structure shown. Where a SMILES comes first, the peptide text is derived from it.

With `CC[C@H](C)[C@@H]1NC(=O)[C@H](CC(C)C)NC(=O)[C@@H]2CCCN2C(=O)[C@H]([C@@H](C)CC)NC(=O)[C@@H]2CCCN2C(=O)[C@H](CO)NC(=O)[C@H](Cc2ccccc2)NC1=O` [stylostatin 2, cyclo (Pro-Leu-Ile-Phe-Ser-Pro-Ile)] (cyclo(FSPIPLI)), the GI50 in assay [1] was found to be 3.7 mg/L (≈ 4.82 µM); in assay [2] it was 6.2 µM.
For the compound “cyclo (Pro-Phe-Asn-Ser-Leu-Ala-Ile) (PFNSLAI; head-to-tail cyclic; printed: Pro-Phe-Asn-Ser-Leu-Ala-Ile) [stylostatin 1, cycloheptapeptide earlier isolated from the same Stylotella sp. sponge]”, in assay [3], the “P388 (PS system) cell line inhibition” value is “inhibitor”.

The values are drawn from US5494893A, “Stylostatin 2” (Arizona Board of Regents, a body corporate acting on behalf …, priority 1994, dated 1996).
